Consider 18 molecules from patent publication US20220249487A1, “QUINAZOLINYL COMPOUNDS AND METHODS OF USE” (Genentech, Inc., priority 2019, published 2022).

Where a name gives a salt, the structure may show the parent alone.

The term IC50 denotes the concentration needed to halve the response being measured.

The target of the assay is T1, IRE1α (Homo sapiens, UniProt O75460, D688N).
T1 construct: containing the kinase and RNase domains (KR, AA G547-L977, D688N); made in house; host or cells: Sf9 insect cells
Briefly: IRE1α TR-FRET competition binding assay (HTRF). To be noted: His-tagged IRE1α kinase dead construct (KR, AA G547-L977, D688N); Alexa fluor 647-labeled ATP competitive probe 2 nM; read-out: IRE1α (alpha) HTRF (IC50). As to the method: To determine the affinity of compound binding to the kinase domain of IRE1α, a time-resolved fluorescence resonance energy transfer (TR-FRET) competition assay was used.
A His-tagged IRE1α kinase dead construct containing the kinase and RNase domains (KR, AA G547-L977, D688N) was expressed in Sf9 insect cells. The purified protein (final concentration 0.25 nM) was pre-incubated with anti-His Europium labeled antibody (Life Technologies PV5596, final concentration 2 nM) for one hour at 4° C. in TR-FRET Assay Buffer (50 mM HEPES, pH 7.5, 10 mM MgCl2, 0.083 mM Brij 35, 1 mM DTT, and 0.1% bovine gamma globulin) prior to addition to test compounds. An Alexa fluor 647-labeled probe based on an ATP competitive inhibitor was added to a final concentration of 2 nM. Reactions were carried out for one hour at room temperature in a final volume of 20 μL in 384 well white ProxiPlates (Perkin Elmer 6008289). Binding of the probe to the IRE1α protein was detected in an Envision instrument (PerkinElmer) equipped with a TRF laser option and a LANCE/Delfia Dual/Bias D400/D630 mirror (Ex 347 nm, 1st Em 665 nm, 2nd Em 615 nm).
(TR-FRET usually uses a lanthanide donor and a delayed reading to cut background.)

T1 sequence (O75460 547-977 D688N): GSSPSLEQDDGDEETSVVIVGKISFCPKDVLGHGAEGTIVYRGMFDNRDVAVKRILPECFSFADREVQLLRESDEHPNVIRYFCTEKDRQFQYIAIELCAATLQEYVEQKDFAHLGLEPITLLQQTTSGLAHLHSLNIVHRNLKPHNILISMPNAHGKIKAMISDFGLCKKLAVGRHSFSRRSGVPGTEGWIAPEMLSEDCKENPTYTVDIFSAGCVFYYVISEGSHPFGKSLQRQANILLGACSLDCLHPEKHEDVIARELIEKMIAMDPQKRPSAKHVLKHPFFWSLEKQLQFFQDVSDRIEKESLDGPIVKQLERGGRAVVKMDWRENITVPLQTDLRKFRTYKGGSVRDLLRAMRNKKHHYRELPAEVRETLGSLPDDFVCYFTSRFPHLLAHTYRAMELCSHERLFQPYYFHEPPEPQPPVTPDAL

For the molecule `O=S(=O)(Cc1ccccc1)Nc1ccc(-c2ccc3nc(N[C@H]4CCCNC4)ncc3c2)c(F)c1F` [Compound 1001, (S)—N-(2,3-Difluoro-4-(2-(piperidin-3-ylamino)quinazolin-6-yl)phenyl)-1-phenylmethanesulfonamide], the half-maximal inhibitory concentration (IC50) came out at 0.57 nM.
For the molecule `O=S(=O)(CCC(F)(F)F)Nc1ccc(-c2ccc3nc(N[C@H]4CCCNC4)ncc3c2)c(F)c1F` [Compound 1002, (S)—N-(2,3-Difluoro-4-(2-(piperidin-3-ylamino)quinazolin-6-yl)phenyl)-3,3,3-trifluoropropane-1-sulfonamide], the IC50 was 7.6 nM.
On to `O=S(=O)(Cc1ccccc1)Nc1c(F)cc(-c2ccc3nc(N[C@H]4CCCNC4)ncc3c2)c(F)c1F` [Compound 1003, (S)-1-Phenyl-N-(2,3,6-trifluoro-4-(2-(piperidin-3-ylamino)quinazolin-6-yl)phenyl)methanesulfonamide], for which the IC50 was found to be 0.65 nM.
As for `O=S(=O)(Cc1ccccc1)Nc1ccc(F)c(-c2ccc3nc(N[C@H]4CCCNC4)ncc3c2)c1F` [Compound 1004, (S)—N-(2,4-Difluoro-3-(2-(piperidin-3-ylamino)quinazolin-6-yl)phenyl)-1-phenylmethanesulfonamide], the IC50 is 150 nM.
Next, `O=S(=O)(Cc1ccccc1)Nc1ccc(F)c(-c2ccc3nc(N[C@H]4CCCNC4)ncc3c2)c1` [Compound 1005, (S)—N-(4-Fluoro-3-(2-(piperidin-3-ylamino)quinazolin-6-yl)phenyl)-1-phenylmethanesulfonamide]: 79 nM; `O=S(=O)(Cc1ccccc1)Nc1cccc(-c2ccc3nc(N[C@H]4CCCNC4)ncc3c2)c1F` [Compound 1006, (S)—N-(2-Fluoro-3-(2-(piperidin-3-ylamino)quinazolin-6-yl)phenyl)-1-phenylmethanesulfonamide]: 100 nM; `CCC(F)(F)CS(=O)(=O)Nc1ccc(-c2ccc3nc(N[C@H]4CCCNC4)ncc3c2)c(F)c1F` [Compound 1007, (S)—N-(2,3-Difluoro-4-(2-(piperidin-3-ylamino)quinazolin-6-yl)phenyl)-2,2-difluorobutane-1-sulfonamide]: 2.9 nM.
In the case of `O=S(=O)(Cc1ccccc1)Nc1ccc(Cl)c(-c2ccc3nc(N[C@H]4CCCNC4)ncc3c2)c1F` [Compound 1008, (S)—N-(4-Chloro-2-fluoro-3-(2-(piperidin-3-ylamino)quinazolin-6-yl)phenyl)-1-phenylmethanesulfonamide], the IC50 was determined as 30 nM.
As to `Cc1cc(NS(=O)(=O)Cc2ccccc2)c(F)c(F)c1-c1ccc2nc(N[C@H]3CCCNC3)ncc2c1` [Compound 1009, (S)—N-(2,3-Difluoro-5-methyl-4-(2-(piperidin-3-ylamino)quinazolin-6-yl)phenyl)-1-phenylmethanesulfonamide], the IC50 stood at 4.9 nM.
Next, `O=S(=O)(Cc1ccccc1)Nc1ccc(-c2ccc3nc(N[C@H]4CCCNC4)ncc3c2)cc1F` [Compound 1010, (S)—N-(2-Fluoro-4-(2-(piperidin-3-ylamino)quinazolin-6-yl)phenyl)-1-phenylmethanesulfonamide]: 11 nM; `O=S(=O)(Cc1ccccc1)Nc1c(F)cc(-c2ccc3nc(N[C@H]4CCCNC4)ncc3c2)cc1F` [Compound 1011, (S)—N-(2,6-Difluoro-4-(2-(piperidin-3-ylamino)quinazolin-6-yl)phenyl)-1-phenylmethanesulfonamide]: 0.53 nM.
Next, `O=S(=O)(Cc1ccccc1)Nc1ccc(-c2ccc3nc(N[C@H]4CCCNC4)ncc3c2F)c(F)c1F` [Compound 1012, (S)—N-(2,3-Difluoro-4-(5-fluoro-2-(piperidin-3-ylamino)quinazolin-6-yl)phenyl)-1-phenylmethanesulfonamide]: 15 nM; `O=S(=O)(Cc1ccccc1)Nc1c(F)cc(-c2ccc3nc(N[C@@H]4CNC[C@@H](F)C4)ncc3c2)cc1F` [Compound 1013, N-(2,6-Difluoro-4-(2-(((3S,5S)-5-fluoropiperidin-3-yl)amino)quinazolin-6-yl)phenyl)-1-phenylmethanesulfonamide]: 0.51 nM; `O=S(=O)(Cc1ccccc1)Nc1cc(F)c(-c2ccc3nc(N[C@H]4CCCNC4)ncc3c2)c(F)c1F` [Compound 1014, (S)-1-Phenyl-N-(2,3,5-trifluoro-4-(2-(piperidin-3-ylamino)quinazolin-6-yl)phenyl)methanesulfonamide hydrochloride]: 2.1 nM.
Next, `O=S(=O)(Cc1ccccc1)Nc1ccc(-c2cc3cnc(N[C@H]4CCCNC4)nc3cc2F)c(F)c1F` [Compound 1015, (S)—N-(2,3-Difluoro-4-(7-fluoro-2-(piperidin-3-ylamino)quinazolin-6-yl)phenyl)-1-phenylmethanesulfonamide]: 3.1 nM.
For `CCc1cc(-c2ccc(NS(=O)(=O)Cc3ccccc3)cc2F)cc2cnc(N[C@@H]3CNC[C@@H](F)C3)nc12` [Compound 1016, N-(4-(8-Ethyl-2-(((3S,5S)-5-fluoropiperidin-3-yl)amino)quinazolin-6-yl)-3-fluorophenyl)-1-phenylmethanesulfonamide Formate], the IC50 was 0.46 nM.
As for `CCc1cc(-c2ccc(NS(=O)(=O)Cc3ccccc3)c(F)c2)cc2cnc(N[C@@H]3CNC[C@@H](F)C3)nc12` [Compound 1017, N-(4-(8-Ethyl-2-(((3S,5S)-5-fluoropiperidin-3-yl)amino)quinazolin-6-yl)-2-fluorophenyl)-1-phenylmethanesulfonamide], the figure is 0.18 nM.
With `CCc1cc(-c2ccc(NS(=O)(=O)CCC(F)(F)F)c(F)c2)cc2cnc(N[C@H]3CC[C@H](N(C)C)CC3)nc12` [Compound 1018, N-(4-(2-(((1,4-trans)-4-(Dimethylamino)cyclohexyl)amino)-8-ethylquinazolin-6-yl)-2-fluorophenyl)-3,3,3-trifluoropropane-1-sulfonamide], the IC50 was determined as 0.25 nM.
